Assay results reported in US4749706A (priority 1986, dated 1988).
Values joined by “and” are separate entries in the source; they are usually repeats but may differ in a detail not shown here. Identical values can stand only once. Like-named read-outs stand apart in the source and are kept apart here.

Legend:
opiate receptor = target: T1, opiate receptor (Rattus norvegicus, UniProt P33535); assay: biochemical; format: binding
T1 construct: from tissue

[1] = as disclosed in U.S. Pat. No. 4,218,454; cited from earlier work
[2] = in vivo
[3] = induced Straub tail method (antagonist activity); conditions: for ED50: read-out: Antagonism ED50, Straub Tail
[4] = writhing assay (analgesia); format: in vivo; conditions: compared with morphine
Method: (§1) Analgesic activity was measured using the tail-flick assay of D'Amour, F. D., et al, J. Pharmacol. Exper. (1941) 72: 74, or by the writhing assay described by Blumberg, H., et al, Proc. Soc. Exp. Biol. Med. (1965) 118: 763. The antagonist activity, considered a measure of nonaddictiveness, was measured by the opiate receptor assay of Pert, C., et al, Mol. Pharmacol. (1974) 10: 868. Antagonist activity was also measured using the induced Straub tail method as described by De Graw, J., et al, J. Med Chem (1978) 21: 415; and Blumberg, H., et al, Advances in Chemical Psychopharmacology, Vol. 8, M. Braudy, et al, ed. Raven Press, New York, N.Y. (1973), 33-43. A direct and simple assay measuring physical dependence is the mouse jump test described by Saelens, J., et al, Arch Int Pharmacodyn (1971) 190: 213.

[5] = mouse jump test (physical dependence); format: in vivo; conditions: after 100 mg/kg naloxone on day 4; 30 min
Method: as §1
Physical dependence, a much more direct measure of non-addictive properties than antagonist activity, was evaluated using the mouse jump test. Mice are injected intraperitoneally 5 times on day 1 with increasing doses of test compound ranging from 8-100 mg/kg body weight. On days 2 and 3 the mice are given 100 mg/kg 4 times. On day 4 all mice receive 100 mg/kg of the antagonist naloxone in a single dose. The mice are then caged for 30 min, and a record is made of the number jumping during this time.

[6] = +NaCl, read-out: Opiate Receptor Inhibition 1C50
[7] = -NaCl, read-out: Opiate Receptor Inhibition 1C50

T1 sequence (P33535 whole entry): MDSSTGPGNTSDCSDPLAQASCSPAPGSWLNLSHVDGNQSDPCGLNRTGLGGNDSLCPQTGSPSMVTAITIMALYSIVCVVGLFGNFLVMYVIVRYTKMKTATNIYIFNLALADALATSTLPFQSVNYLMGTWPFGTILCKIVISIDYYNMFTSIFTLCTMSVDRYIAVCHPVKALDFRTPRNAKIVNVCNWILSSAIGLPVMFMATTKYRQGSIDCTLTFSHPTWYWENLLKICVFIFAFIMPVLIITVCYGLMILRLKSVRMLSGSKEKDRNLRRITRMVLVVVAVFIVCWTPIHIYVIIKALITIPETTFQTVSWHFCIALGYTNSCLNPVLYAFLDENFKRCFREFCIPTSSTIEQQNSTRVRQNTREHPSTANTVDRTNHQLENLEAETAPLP

## CC(C1CC1)N1CC[C@]23c4c5ccc(O)c4O[C@H]2[C@@H](O)C=C[C@H]3[C@H]1C5 (mixture of isomers) [N-α-Methylcyclopropylmethylnormorphine]
Opiate receptor; [6]
  IC50: 6 nM
Opiate receptor; [7]
  IC50: 3 nM
[1]
  addiction liability: little or no addiction liability
[2]; sc
  potency relative to morphine in the tail flick assay: about 85%
[3]; in vivo
  antagonist potency relative to nalorphine: about one-fourth as potent as nalorphine
[3]
  ED50: 4.5 µmol/kg
[4]
  potency relative to morphine in the writhing assay: more than twice as potent

## CC(C1CC1)N1CC[C@]23c4c5ccc(O)c4O[C@H]2[C@@H](O)C=C[C@H]3[C@H]1C5 (single isomer, unassigned; diastereomer a) [N--α-methylcyclopropyl-methyl normorphine (A)] [N-methylcyclopropylmethyl normorphine (diastereomer A)]
In vivo
  Antagonism ED50, Tail Flick: > 213 µmol/kg
Opiate receptor
  times the affinity of N-sec-butylnormorphine in the opiate assay: about 122 times
  times the affinity of morphine in the opiate assay: over 43 times
Opiate receptor; competitive binding against 3H-dihydromorphine, A versus B
  times more tightly bound than the higher melting form: 30 times
[2]
  activity relative to the diastereomeric mixture and to diastereomer B: much higher activity
  oral activity compared with subcutaneous morphine in the tail flick assay: approximated an equivalent dose of morphine administered subcutaneously
[2]; po
  duration of effectiveness: 4 h
  onset of action: 5 to 10 min
  times as potent as morphine in tail flick analgesia, oral: 6.2 times
[2]; sc
  activity of lower melting diastereomer A relative to higher melting form: about 25 times
  times as potent as morphine in the tail flick assay: 5.2 times

## CC(C1CC1)N1CC[C@]23c4c5ccc(O)c4O[C@H]2[C@@H](O)C=C[C@H]3[C@H]1C5 (single isomer, unassigned; diastereomer a) [N-methylcyclopropylmethyl normorphine (diastereomer A)]
Opiate receptor; [7]
  IC50: 0.23 nM

## CC(C1CC1)N1CC[C@]23c4c5ccc(O)c4O[C@H]2[C@@H](O)C=C[C@H]3[C@H]1C5 (single isomer, unassigned; diastereomer b) [N--α-methylcyclopropyl-methyl normorphine (B)] [N-methylcyclopropylmethyl normorphine (diastereomer B)]
[2]; sc
  potency relative to morphine in the tail flick assay (in words): only one-fifth as potent as morphine

## CC(C1CC1)N1CC[C@]23c4c5ccc(O)c4O[C@H]2[C@@H](O)C=C[C@H]3[C@H]1C5 (single isomer, unassigned; diastereomer b) [N-methylcyclopropylmethyl normorphine (diastereomer B)]
Opiate receptor; [7]
  IC50: 7 nM

## CC[C@@H](C)N1CC[C@]23c4c5ccc(O)c4O[C@H]2[C@@H](O)C=C[C@H]3[C@H]1C5 [N--sec-butyl normorphine (R), reference compound]
Opiate receptor; [6]
  IC50: 110 nM
Opiate receptor; [7]
  IC50: 60 nM
[1]
  addiction liability: little or no addiction liability
[3]
  ED50: 16.2 µmol/kg

## CC[C@H](C)N1CC[C@]23c4c5ccc(O)c4O[C@H]2[C@@H](O)C=C[C@H]3[C@H]1C5 [N--sec-butyl normorphine (S), reference compound]
Opiate receptor; [6]
  IC50: 62 nM
Opiate receptor; [7]
  IC50: 28 nM
[1]
  addiction liability: little or no addiction liability
[3]
  ED50: 7.4 µmol/kg

## CN1CC[C@]23c4c5ccc(O)c4O[C@H]2[C@@H](O)C=C[C@H]3[C@H]1C5 [morphine]
Reversal of analgesia induced by morphine in the tail flick assay
  Antagonism ED50, Tail Flick: 2 µmol/kg
[5]
  number of mice jumping: 10/10
[2]
  time after which activity declines substantially: 3 h
[3]; Straub tail method
  Antagonism ED50, Straub Tail: 1 µmol/kg

## C=CCN1CC[C@]23c4c5ccc(O)c4O[C@H]2[C@@H](O)C=C[C@H]3[C@H]1C5 [nalorphine, reference compound]
In vivo
  Antagonism ED50, Tail Flick: 2.04 µmol/kg
Opiate receptor; Opiate Receptor Inhibition 1C50
  IC50: 2 nM and 6 nM
[1]
  addiction liability: little or no addiction liability
